# Values quoted from earlier work, collected in patent US11576952B2, “Injectable solution at pH 7 comprising at least one basal insulin for which the pI is from 5.8 to 8.5 and a co-polyamino acid bearing carboxylate charges and hydrophobic radicals” (ADOCIA, priority 2017, dated 2023).
# Details: background description
substance,measurement,value
insulin glargine,Period over which the blood sugar lowering effect is quasi-constant,24 h
